Data published in US20050009007A1 (priority 2003, published 2005).

Test system: giant synaptic terminal of depolarizing bipolar cells from the goldfish retina
Format: cell-based
Conditions: n=7

## O=C(O)CN(CC(=O)O)c1ccccc1OCCOc1ccccc1N(CC(=O)O)CC(=O)O [BAPTA]
  increase in area of the footprint triggered by depolarization: completely blocked
